Results on 14 compounds are retold here after patent publication US9656963B2 (BRISTOL-MYERS SQUIBB COMPANY, priority 2012, dated 2017).

The target in the assay is T1, hGPR40 (Homo sapiens, UniProt O14842).
T1 construct: 3x FLAG; expressed in transfected cells
T1 sequence (O14842 whole entry): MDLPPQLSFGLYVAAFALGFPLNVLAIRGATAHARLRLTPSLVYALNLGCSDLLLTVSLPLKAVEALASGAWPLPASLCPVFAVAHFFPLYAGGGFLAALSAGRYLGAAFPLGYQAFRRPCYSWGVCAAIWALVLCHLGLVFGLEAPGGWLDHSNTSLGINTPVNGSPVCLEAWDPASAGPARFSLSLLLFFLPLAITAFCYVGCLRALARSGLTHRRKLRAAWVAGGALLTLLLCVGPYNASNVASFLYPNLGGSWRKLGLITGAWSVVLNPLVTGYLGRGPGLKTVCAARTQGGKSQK
The assay is described as follows: FDSS-Based Intracellular Calcium Assay. Type of assay: cell-based. The conditions noted are these: cells expressing GPR40, intracellular Ca2+ response. Put shortly:
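Flag-tagged GPR40-expressing cells plated overnight in serum-free, phenol red-free DMEM. Compounds added from DMSO stocks, diluted in assay buffer and added as 3x solution. Intracellular Ca^2+ flux read by fluorescence on an FDSS reader.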
Background: Calcium flux is commonly read through the fluorescence of an indicator in the cells.
What is called EC50 is the concentration giving half of the maximal effect. `Cc1cc(-c2cc(O)ccc2F)ccc1Cc1ccc(N2N=C(C(F)(F)F)[C@@H](C)[C@@H]2CC(=O)O)cc1` [Example 56, 2-((4S,5S)-1-(4-((2′-fluoro-5′-hydroxy-3-methyl-[1,1′-biphenyl]-4-yl)methyl)phenyl)-4-methyl-3-(trifluoromethyl)-4,5-dihydro-1H-pyrazol-5-yl)acetic acid]: the EC50 came out at 0.15 µM.

With `COc1ccc(F)c(-c2ccc(Cc3ccc(N4N=C(C(=O)O)[C@@H](C)[C@@H]4CC(=O)O)cc3)c(C)c2)c1` [Example 57, (4S,5S)-5-(carboxymethyl)-1-(4-((2′-fluoro-5′-methoxy-3-methyl-[1,1′-biphenyl]-4-yl)methyl)phenyl)-4-methyl-4,5-dihydro-1H-pyrazole-3-carboxylic acid], the EC50 stood at 6.62 µM.

For the compound `Cc1nc(-c2ccccc2)ncc1Cc1ccc(N2N=C(C(F)(F)F)[C@@H](C)[C@@H]2CC(=O)O)cc1` [Example 58, 2-((4S,5S)-4-methyl-1-(4-((4-methyl-2-phenylpyrimidin-5-yl)methyl)phenyl)-3-(trifluoromethyl)-4,5-dihydro-1H-pyrazol-5-yl)acetic acid], the EC50 amounted to 4.29 µM.

In the case of `COc1ccc(F)c(-c2ncc(Cc3ccc(N4N=C(c5ccccc5)[C@@H](C)[C@@H]4CC(=O)O)cc3)c(C)n2)c1` [Example 64, 2-((4S,5S)-1-(4-((2-(2-fluoro-5-methoxyphenyl)-4-methylpyrimidin-5-yl)methyl)phenyl)-4-methyl-3-phenyl-4,5-dihydro-1H-pyrazol-5-yl)acetic acid], the EC50 was determined as 0.27 µM.

Take `COc1ccc(F)c(-c2cnc(Oc3ccc(N4N=C(C(F)(F)F)[C@@H](C)[C@@H]4CC(=O)O)cc3)nc2)c1` [Example 65, 2-((4S,5S)-1-(4-(5-(2-fluoro-5-methoxyphenyl)pyrimidin-2-yloxy)phenyl)-4-methyl-3-(trifluoromethyl)-4,5-dihydro-1H-pyrazol-5-yl)acetic acid]: the EC50 worked out at 1.49 µM.

Take `CCOc1ccc(F)c(-c2ccc(Cc3ccc(N4N=C(C(F)(F)F)[C@@H](C)[C@@H]4CC(=O)O)cc3)c(C)c2)c1` [Example 70, 2-((4S,5S)-1-(4-((5′-ethoxy-2′-fluoro-3-methyl-[1,1′-biphenyl]-4-yl)methyl)phenyl)-4-methyl-3-(trifluoromethyl)-4,5-dihydro-1H-pyrazol-5-yl)acetic acid]: the EC50 is 0.12 µM.

As to `C[C@@H]1C(C(F)(F)F)=NN(c2ccc(CCCc3ccccc3)cc2)[C@H]1CC(=O)O` [Example 71, 2-((4S,5S)-4-methyl-1-(4-(3-phenylpropyl)phenyl)-3-(trifluoromethyl)-4,5-dihydro-1H-pyrazol-5-yl)acetic acid], the EC50 is 5.76 µM.

Turning to `C[C@@H]1C(C(F)(F)F)=NN(c2ccc(CCCc3cccc(F)c3)cc2)[C@H]1CC(=O)O` [Example 72, 2-((4S,5S)-1-(4-(3-(3-fluorophenyl)propyl)phenyl)-4-methyl-3-(trifluoromethyl)-4,5-dihydro-1H-pyrazol-5-yl)acetic acid], the EC50 was 7.02 µM.

Regarding `COc1cccc(-c2ccc(Cc3ccc(N4N=C(C(F)(F)F)[C@@H](C)[C@@H]4CC(=O)O)cc3)c(C)c2)c1` [Example 73], the EC50 was 0.037 µM.

For the compound `COc1cc(-c2ccc(Cc3ccc(N4N=C(C(F)(F)F)[C@@H](C)[C@@H]4CC(=O)O)cc3)c(C)c2)c(F)cn1` [Example 74, 2-((4S,5 S)-1-(4-(4-(5-fluoro-2-methoxypyridin-4-yl)-2-methylbenzyl)phenyl)-4-methyl-3-(trifluoromethyl)-4,5-dihydro-1H-pyrazol-5-yl)acetic acid], the EC50 amounted to 0.21 µM.

In the case of `COc1cc(-c2ccc(Cc3ccc(N4N=C(C(F)(F)F)[C@@H](C)[C@@H]4CC(=O)O)cc3)c(C)c2)ccn1` [Example 75, 2-((4S,5S)-1-(4-(4-(2-methoxypyridin-4-yl)-2-methylbenzyl)phenyl)-4-methyl-3-(trifluoromethyl)-4,5-dihydro-1H-pyrazol-5-yl)acetic acid], the EC50 came to 0.43 µM.

With `Cc1cc(-c2cnccn2)ccc1Cc1ccc(N2N=C(C(F)(F)F)[C@@H](C)[C@@H]2CC(=O)O)cc1` [Example 76, 2-((4S,5 S)-4-methyl-1-(4-(2-methyl-4-(pyrazin-2-yl)benzyl)phenyl)-3-(trifluoromethyl)-4,5-dihydro-1H-pyrazol-5-yl)acetic acid], the EC50 stood at 1.62 µM.

For `COc1ncccc1-c1ccc(Cc2ccc(N3N=C(C(F)(F)F)[C@@H](C)[C@@H]3CC(=O)O)cc2)c(C)c1` [Example 77, 2-((4S,5S)-1-(4-(4-(2-methoxypyridin-3-yl)-2-methylbenzyl)phenyl)-4-methyl-3-(trifluoromethyl)-4,5-dihydro-1H-pyrazol-5-yl)acetic acid], the EC50 was found to be 5.37 µM.

With `Cc1cc(-c2ccncc2)ccc1Cc1ccc(N2N=C(C(F)(F)F)[C@@H](C)[C@@H]2CC(=O)O)cc1` [Example 78, 2-((4S,5S)-4-methyl-1-(4-(2-methyl-4-(pyridin-4-yl)benzyl)phenyl)-3-(trifluoromethyl)-4,5-dihydro-1H-pyrazol-5-yl)acetic acid], the EC50 came to 8.33 µM.
